Activity calls are given as the source filed them. No cut-off for these calls is given here. Bounds are passed on as bounds.

Common to all, as to format: functional, organism-based
The species named for assay [1] is Rattus norvegicus. Kind of assay: Concentration required for determining half-maximal release of growth hormone(GH) in the rat pituitary cell assay. The conditions noted are these: Pituitary gland cell.
In assay [2] the test system is Canis familiaris. Kind of assay: In vivo growth hormone(GH) release in beagles after intravenous administration; NA- Not active. Conditions: Canis lupus familiaris.
Assay [3] deals with Canis familiaris. Kind of assay: In vivo growth hormone(GH) release in beagles after orally administered dose of 0.5 mg/kg;8/8. Conditions: Canis lupus familiaris. Further details: dose 0.5 mg/kg.
Assay [4] deals with Canis familiaris. The assay can be described thus: In vivo growth hormone(GH) release in beagles after intravenously administered dose of 0.01 mg/kg; 1/1. The arrangement: dose 0.01 mg/kg. Conditions: Canis lupus familiaris.
The test system of assay [5] is Canis familiaris. The assay can be described thus: In vivo growth hormone(GH) release in beagles after orally administered dose of 0.25 mg/kg; 6/8. Further details: dose 0.25 mg/kg. Conditions: Canis lupus familiaris.

As a reminder, the EC50 is the midpoint of the concentration-response curve. High values mean lower potency in that assay, low ones higher potency in that assay. In the case of `CCOC(=O)C1(Cc2cscn2)CCCN(C(=O)[C@@H](Cc2c[nH]c3ccccc23)NC(=O)C(C)(C)N)C1` (stereo partly drawn), the EC50 in assay [1] worked out at 1 nM.

Turning to `CCOC(=O)C1(Cc2ccncc2)CCCN(C(=O)[C@@H](Cc2c[nH]c3ccccc23)NC(=O)C(C)(C)N)C1` (stereo partly drawn), in assay [1], the EC50 came to 4.4 nM.

Consider `CC(C)(N)C(=O)N[C@H](Cc1c[nH]c2ccccc12)C(=O)N1CCC[C@](Cc2cscn2)(C(=O)O)C1`, for which, in assay [1], the EC50 was > 500 nM.

`CCOC(=O)C1(Cc2cncs2)CCCN(C(=O)[C@@H](Cc2c[nH]c3ccccc23)NC(=O)C(C)(C)N)C1` (stereo partly drawn) registered an EC50 in assay [1] of 6.1 nM. In assay [2], the Response entry was “inactive”.

In assay [1], `CC(C)(N)C(=O)N[C@H](Cc1c[nH]c2ccccc12)C(=O)N1CCC[C@](Cc2ccccn2)(C(=O)O)C1` had an EC50 of 570 nM.

Consider `CCOC(=O)C1(Cc2nccs2)CCCN(C(=O)[C@@H](Cc2c[nH]c3ccccc23)NC(=O)C(C)(C)N)C1` (stereo partly drawn), for which, in assay [1], the midpoint of the response, the EC50, lay at 4.2 nM.

In assay [1], `CCOC(=O)C1(Cc2ccccn2)CCCN(C(=O)[C@@H](Cc2c[nH]c3ccccc23)NC(=O)C(C)(C)N)C1` (stereo partly drawn) had an EC50 of 0.5 nM.

The compound `CCOC(=O)[C@]1(Cc2ccccn2)CCCN(C(=O)[C@@H](Cc2c[nH]c3ccccc23)NC(=O)C(C)(C)N)C1` had an EC50 in assay [1] of 0.2 nM.

For `CC(C)(N)C(=O)N[C@H](Cc1c[nH]c2ccccc12)C(=O)N1CCC[C@](Cc2ccccc2)(C(=O)O)C1`, the EC50 in assay [1] was 190 nM.

`CCOC(=O)[C@@]1(Cc2ccccn2)CCCN(C(=O)[C@@H](Cc2c[nH]c3ccccc23)NC(=O)C(C)(C)N)C1` came in with an EC50 in assay [1] of 3 nM.

In assay [1], `CCOC(=O)[C@]1(Cc2cscn2)CCCN(C(=O)[C@@H](Cc2c[nH]c3ccccc23)NC(=O)C(C)(C)N)C1` gave an EC50 of 0.5 nM.

As to `CCOC(=O)[C@@]1(Cc2ccccc2)CCCN(C(=O)[C@@H](Cc2c[nH]c3ccccc23)NC(=O)C(C)(C)N)C1`, in assay [3], the Response result is “Active”. In assay [1], this compound had an EC50 of 1.6 nM. For the same compound, the Response result in assay [4] is “inactive”. Besides, the Response result in assay [5] is “Partially active”.

In turn, `CCOC(=O)C1(Cc2cccnc2)CCCN(C(=O)[C@@H](Cc2c[nH]c3ccccc23)NC(=O)C(C)(C)N)C1` (stereo partly drawn) had an EC50 in assay [1] of 2.2 nM.

Consider `CCOC(=O)[C@@]1(Cc2cscn2)CCCN(C(=O)[C@@H](Cc2c[nH]c3ccccc23)NC(=O)C(C)(C)N)C1`, for which the EC50 in assay [1] was determined as 15 nM.

The record behind these values is ChEMBL document CHEMBL1131763, “Thiazole-derived potent, highly bioavailable short duration growth hormone secretagogues” (Bioorg Med Chem Lett, 1999).
